Measured values taken from US10385057B2, “Pyrazole compounds and methods of making and using same” (Lundbeck La Jolla Research Center, Inc., priority 2015, dated 2019).

Assays:
[1] = target: T1, FAAH (Mus musculus, UniProt O08914); assay: In vitro competitive activity-based protein profiling, mouse FAAH; type: biochemical; conditions: for inhibition at 1 µM: read-out: FAAH % inh. 1 μM (mouse)
T1 construct: mouse brain membrane fraction or cell lysates for mouse assays; from tissue
T1 sequence (O08914 1-579): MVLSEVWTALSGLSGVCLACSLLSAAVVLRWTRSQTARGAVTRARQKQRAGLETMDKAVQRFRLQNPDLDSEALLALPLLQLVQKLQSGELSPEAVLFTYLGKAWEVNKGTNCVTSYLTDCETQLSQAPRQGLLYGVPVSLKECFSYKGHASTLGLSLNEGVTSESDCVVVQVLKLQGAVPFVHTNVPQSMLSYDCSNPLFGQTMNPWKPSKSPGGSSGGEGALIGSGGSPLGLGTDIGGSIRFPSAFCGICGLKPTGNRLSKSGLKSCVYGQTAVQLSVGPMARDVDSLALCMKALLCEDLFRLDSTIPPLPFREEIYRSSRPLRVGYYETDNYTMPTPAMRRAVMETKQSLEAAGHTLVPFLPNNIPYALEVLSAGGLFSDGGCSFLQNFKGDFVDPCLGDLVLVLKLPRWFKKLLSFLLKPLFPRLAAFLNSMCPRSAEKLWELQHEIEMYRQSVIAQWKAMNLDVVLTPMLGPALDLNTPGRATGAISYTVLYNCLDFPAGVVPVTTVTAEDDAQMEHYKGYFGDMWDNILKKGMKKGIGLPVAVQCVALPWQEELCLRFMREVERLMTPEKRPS
Procedure, shortened: (§1)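 Activity measured as fluorescent gel-band intensity of MAGL and FAAH after SDS-PAGE. Before labelling with FP-Rh or HT-01 (30 min, 37 °C), proteomes at 1.0 mg/mL (mouse brain membrane or lysates; human prefrontal cortex or cell membranes) were exposed to varying inhibitor concentrations for 30 min at 37 °C.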

[2] = target: T2, MAGL (Mus musculus, UniProt O35678); assay: In vitro competitive activity-based protein profiling, mouse MAGL; type: biochemical; conditions: for inhibition at 1 µM: read-out: MAGL % inh. 1 μM (mouse)
T2 construct: mouse brain membrane fraction or cell lysates for mouse assays; from tissue
T2 sequence (O35678 1-303): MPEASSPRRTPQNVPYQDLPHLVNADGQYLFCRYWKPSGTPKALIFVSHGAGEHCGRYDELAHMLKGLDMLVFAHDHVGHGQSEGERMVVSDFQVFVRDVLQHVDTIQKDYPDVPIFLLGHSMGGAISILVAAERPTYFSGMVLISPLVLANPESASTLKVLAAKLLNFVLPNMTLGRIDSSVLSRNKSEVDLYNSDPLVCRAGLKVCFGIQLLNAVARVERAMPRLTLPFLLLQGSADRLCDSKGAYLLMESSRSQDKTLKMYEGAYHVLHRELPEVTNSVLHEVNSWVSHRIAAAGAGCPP
Procedure, shortened: as §1

| SMILES | IC50 [1] [nM] | inhibition at 1 µM [1] [%] | IC50 [2] [nM] | inhibition at 1 µM [2] [%] |
| --- | --- | --- | --- | --- |
| O=C(N1CCC2(CCN(Cc3ccc(F)cc3)C2)C1)n1cc(C(F)(F)F)cn1 (centres unmarked) [Example 166, (7-(4-fluorobenzyl)-2,7-diazaspiro[4.4]nonan-2-yl)(4-(trifluoromethyl)-1H-pyrazol-1-yl)methanone] | 100 to 1000 | ≥ 75 | 100 to 1000 | ≥ 75 |
| COc1ccc(CN2CCC3(CCN(C(=O)n4cc(C(F)(F)F)cn4)C3)C2)cc1 (centres unmarked) [Example 167, (7-(4-methoxybenzyl)-2,7-diazaspiro[4.4]nonan-2-yl)(4-(trifluoromethyl)-1H-pyrazol-1-yl)methanone] | 100 to 1000 | ≥ 75 | 100 to 1000 | ≥ 75 |
| O=C(N1CCC2(CCN(Cc3cccc(Cl)c3)C2)C1)n1cc(C(F)(F)F)cn1 (centres unmarked) [Example 168, (7-(3-chlorobenzyl)-2,7-diazaspiro[4.4]nonan-2-yl)(4-(trifluoromethyl)-1H-pyrazol-1-yl)methanone] | ≤ 100 | ≥ 75 | ≤ 100 | ≥ 75 |
| O=C(N1CCC2(CCN(Cc3cccc(F)c3)C2)C1)n1cc(C(F)(F)F)cn1 (centres unmarked) [Example 169, (7-(3-fluorobenzyl)-2,7-diazaspiro[4.4]nonan-2-yl)(4-(trifluoromethyl)-1H-pyrazol-1-yl)methanone] | ≤ 100 | ≥ 75 | 100 to 1000 | ≥ 75 |
| Cc1cccc(CN2CCC3(CCN(C(=O)n4cc(C(F)(F)F)cn4)C3)C2)c1 (centres unmarked) [Example 170, (7-(3-methylbenzyl)-2,7-diazaspiro[4.4]nonan-2-yl)(4-(trifluoromethyl)-1H-pyrazol-1-yl)methanone] | ≤ 100 | ≥ 75 | 100 to 1000 | ≥ 75 |
| COc1cccc(CN2CCC3(CCN(C(=O)n4cc(C(F)(F)F)cn4)C3)C2)c1 (centres unmarked) [Example 171] | ≤ 100 | ≥ 75 | 100 to 1000 | ≥ 75 |
| O=C(N1CCC2(CCN(Cc3cccc(C(F)(F)F)c3)C2)C1)n1cc(C(F)(F)F)cn1 (centres unmarked) [Example 172, (4-(trifluoromethyl)-1H-pyrazol-1-yl)(7-(3-(trifluoromethyl)benzyl)-2,7-diazaspiro[4.4]nonan-2-yl)methanone] | ≤ 100 | ≥ 75 | ≤ 100 | ≥ 75 |
| Cc1ccc(CN2CCC3(CCN(C(=O)n4cc(C(F)(F)F)cn4)C3)C2)cc1 (centres unmarked) [Example 173, (7-(4-methylbenzyl)-2,7-diazaspiro[4.4]nonan-2-yl)(4-(trifluoromethyl)-1H-pyrazol-1-yl)methanone] | – | ≥ 75 | – | ≥ 75 |
| O=C(N1CCC2(CCN(Cc3cccc(N4CCCC4)c3)C2)C1)n1cc(C(F)(F)F)cn1 (centres unmarked) [Example 174, (7-(3-(pyrrolidin-1-yl)benzyl)-2,7-diazaspiro[4.4]nonan-2-yl)(4-(trifluoromethyl)-1H-pyrazol-1-yl)methanone] | – | ≥ 75 | – | ≥ 75 |
| O=C(N1CCC2(CCN(Cc3cccc(N4CCOCC4)c3)C2)C1)n1cc(C(F)(F)F)cn1 (centres unmarked) [Example 175, (7-(3-morpholinobenzyl)-2,7-diazaspiro[4.4]nonan-2-yl)(4-(trifluoromethyl)-1H-pyrazol-1-yl)methanone] | – | ≥ 75 | – | ≥ 75 |
| O=C(N1CCC2(CCN(Cc3ccccc3Cl)C2)C1)n1cc(C(F)(F)F)cn1 (centres unmarked) [Example 176, (7-(2-chlorobenzyl)-2,7-diazaspiro[4.4]nonan-2-yl)(4-(trifluoromethyl)-1H-pyrazol-1-yl)methanone] | ≤ 100 | ≥ 75 | ≤ 100 | ≥ 75 |
| O=C(N1CCC2(CCN(Cc3ccccc3F)C2)C1)n1cc(C(F)(F)F)cn1 (centres unmarked) [Example 177, (7-(2-fluorobenzyl)-2,7-diazaspiro[4.4]nonan-2-yl)(4-(trifluoromethyl)-1H-pyrazol-1-yl)methanone] | – | ≥ 75 | – | ≥ 75 |
| Cc1ccccc1CN1CCC2(CCN(C(=O)n3cc(C(F)(F)F)cn3)C2)C1 (centres unmarked) [Example 178, (7-(2-methylbenzyl)-2,7-diazaspiro[4.4]nonan-2-yl)(4-(trifluoromethyl)-1H-pyrazol-1-yl)methanone] | 100 to 1000 | ≥ 75 | 100 to 1000 | ≥ 75 |
| COc1ccccc1CN1CCC2(CCN(C(=O)n3cc(C(F)(F)F)cn3)C2)C1 (centres unmarked) [Example 179, (7-(2-methoxybenzyl)-2,7-diazaspiro[4.4]nonan-2-yl)(4-(trifluoromethyl)-1H-pyrazol-1-yl)methanone] | – | 50 to 75 | – | ≥ 75 |
| O=C(N1CCC2(CCN(Cc3ccccc3C(F)(F)F)C2)C1)n1cc(C(F)(F)F)cn1 (centres unmarked) [Example 180, (4-(trifluoromethyl)-1H-pyrazol-1-yl)(7-(2-(trifluoromethyl)benzyl)-2,7-diazaspiro[4.4]nonan-2-yl)methanone] | – | ≥ 75 | – | ≥ 75 |
| O=C(N1CCC2(CCN(Cc3ccccc3N3CCCC3)C2)C1)n1cc(C(F)(F)F)cn1 (centres unmarked) [Example 181, (7-(2-(pyrrolidin-1-yl)benzyl)-2,7-diazaspiro[4.4]nonan-2-yl)(4-(trifluoromethyl)-1H-pyrazol-1-yl)methanone] | – | 25 to 50 | – | ≥ 75 |
| O=C(N1CCC2(CCN(Cc3ccccc3N3CCOCC3)C2)C1)n1cc(C(F)(F)F)cn1 (centres unmarked) [Example 182, 2-{[2-(morpholin-4-yl)phenyl]methyl}-7-{[4-(trifluoromethyl)-1H-pyrazol-1-yl]carbonyl}-2,7-diazaspiro[4.4]nonane] | – | 25 to 50 | – | ≥ 75 |
| CN(Cc1ccc(C(F)(F)F)cc1)[C@H]1C[C@@H]2CN(C(=O)n3cc(C(=O)N4CCOCC4)cn3)C[C@@H]2C1 [Example 184, (trans-5-(methyl(4-(trifluoromethyl)benzyl)amino)hexahydrocyclopenta[c]pyrrol-2(1H)-yl)(4-(morpholine-4-carbonyl)-1H-pyrazol-1-yl)methanone] | – | ≥ 75 | – | 50 to 75 |
| CN(Cc1ccc(C(F)(F)F)cc1)[C@H]1C[C@@H]2CN(C(=O)n3cc(C(=O)N4CCN(C5CC5)CC4)cn3)C[C@@H]2C1 [Example 186, (4-cyclopropylpiperazin-1-yl)(1-(trans-5-(methyl(4-(trifluoromethyl)benzyl)amino)octahydrocyclopenta[c]pyrrole-2-carbonyl)-1H-pyrazol-4-yl)methanone] | – | ≥ 75 | – | ≥ 75 |
| O=C(O)c1cnn(C(=O)N2CC3CN(Cc4cccc(Oc5ccccc5)c4)CC3C2)c1 (centres unmarked) [Example 187, 1-(5-(3-phenoxybenzyl)octahydropyrrolo[3,4-c]pyrrole-2-carbonyl)-1H-pyrazole-4-carboxylic acid] | – | ≥ 75 | – | 50 to 75 |
| O=C(c1cnn(C(=O)N2CC3CN(Cc4ccc(Oc5ccc(Cl)cc5)cc4)CC3C2)c1)N1CCCC1 (centres unmarked) [Example 189, (5-(4-(4-chlorophenoxy)benzyl)hexahydropyrrolo[3,4-c]pyrrol-2(1H)-yl)(4-(pyrrolidine-1-carbonyl)-1H-pyrazol-1-yl)methanone] | ≤ 100 | ≥ 75 | 100 to 1000 | 50 to 75 |
